Reference: patent US20250230155A1 (Vanderbilt University, priority 2021, published 2025)

Target: T1, human mAChR M4 (Homo sapiens, UniProt P08173)
T1 construct: expressed in transfected cells
T1 sequence (P08173 1-479): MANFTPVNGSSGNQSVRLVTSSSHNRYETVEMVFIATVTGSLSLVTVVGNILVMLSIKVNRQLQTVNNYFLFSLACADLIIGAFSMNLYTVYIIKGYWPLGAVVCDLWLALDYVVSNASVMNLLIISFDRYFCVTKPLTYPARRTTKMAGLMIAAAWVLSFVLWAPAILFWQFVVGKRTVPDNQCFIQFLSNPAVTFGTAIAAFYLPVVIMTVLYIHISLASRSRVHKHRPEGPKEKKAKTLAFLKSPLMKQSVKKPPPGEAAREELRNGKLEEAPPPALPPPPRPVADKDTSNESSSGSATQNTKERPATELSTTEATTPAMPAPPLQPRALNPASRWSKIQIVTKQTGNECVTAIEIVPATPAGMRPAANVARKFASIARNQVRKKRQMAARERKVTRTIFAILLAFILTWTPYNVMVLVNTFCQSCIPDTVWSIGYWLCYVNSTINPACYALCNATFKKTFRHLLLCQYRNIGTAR
Assay: mAChR M4 cell-based functional assay (calcium mobilization, CHO-K1 hM4-Gqi5 cells)
Conditions: for Emax at 30 µM: CHO-K1, % ACh maximum at 30 μM, human M4; for EC50: positive allosteric modulator activity, increase in the EC20 acetylcholine response, CHO-K1 hM4-Gqi5 cells, read-out: Human M4 EC50
Method in brief: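 Fluorescent calcium read-out (Fluo-4 AM, FDSS, 1 Hz) in hM4-Gqi5 CHO-K1 cells, 11-point 1:3 compound series. Agonism scored on compound addition, PAM activity as increase of the 144 s EC20 acetylcholine response, antagonism as decrease of the 230 s EC80 response; four-parameter logistic fits give EC50 and Emax.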

Emax at 30 µM | EC50 | SMILES
93% | 322 nM | Cc1cc(C(=O)N2CC(C)(O)C2)nnc1N1CCc2ncc(CC(F)(F)F)cc2C1 [Example 588, (3-hydroxy-3-methylazetidin-1-yl)(5-methyl-6-(3-(2,2,2-trifluoroethyl)-7,8-dihydro-1,6-naphthyridin-6(5H)-yl)pyridazin-3-yl)methanone]
84% | 313 nM | Cc1cc(C(=O)NCc2ccncc2)cnc1N1CCc2ncc(-c3ccc(C4CC4)nc3)cc2C1 [Example 483, 6-(3-(6-cyclopropylpyridin-3-yl)-7,8-dihydro-1,6-naphthyridin-6(5H)-yl)-5-methyl-N-(pyridin-4-ylmethyl)nicotinamide]
93% | 78.5 nM | Cc1cc(C(=O)NCc2nccs2)cnc1N1CCc2ncc(-c3c(C)noc3C)cc2C1 [compound 172, 6-[3-(3,5-dimethylisoxazol-4-yl)-7,8-dihydro-5H-1,6-naphthyridin-6-yl]-5-methyl-N-(thiazol-2-ylmethyl)pyridine-3-carboxamide]
48% | 1600 nM | Cc1c(C#N)nnc(N2CCc3ncc(C(F)(F)F)cc3C2)c1C [Example 303, 4,5-dimethyl-6-(3-(trifluoromethyl)-7,8-dihydro-1,6-naphthyridin-6(5H)-yl)pyridazine-3-carbonitrile]
96% | 1100 nM | Cc1cc(C#N)cnc1N1CCc2ncc(N3CCN(C)C(=O)C3)cc2C1 [Example 409, 5-methyl-6-(3-(4-methyl-3-oxopiperazin-1-yl)-7,8-dihydro-1,6-naphthyridin-6(5H)-yl)nicotinonitrile]
76% | 1490 nM | COc1cc(-c2cnc3c(c2)CN(c2nnc(C#N)c(C)c2C)CC3)ccn1 [compound 76, 6-[3-(2-methoxy-4-pyridyl)-7,8-dihydro-5H-1,6-naphthyridin-6-yl]-4,5-dimethyl-pyridazine-3-carbonitrile]
120% | 472 nM | Cc1cc(C#N)cnc1N1CCc2ncc(N3CCC(C(F)(F)F)n4nccc43)cc2C1 (centres unmarked) [Example 359, 5-methyl-6-(3-(7-(trifluoromethyl)-6,7-dihydropyrazolo[1,5-a]pyrimidin-4(5H)-yl)-7,8-dihydro-1,6-naphthyridin-6(5H)-yl)nicotinonitrile]
65% | 739 nM | Cc1cc(C#N)cnc1N1CCc2ncc(N3CCCn4nc(C(C)(C)C)cc43)cc2C1 [Example 414, 6-(3-(2-(tert-butyl)-6,7-dihydropyrazolo[1,5-a]pyrimidin-4(5H)-yl)-7,8-dihydro-1,6-naphthyridin-6(5H)-yl)-5-methylnicotinonitrile]
59% | 332 nM | Cc1nc(C)c(C)c(N2CCc3ncc(-c4ccc(F)nc4)cc3C2)n1 [compound 229, 3-(6-fluoropyridin-3-yl)-6-(2,5,6-trimethylpyrimidin-4-yl)-5,6,7,8-tetrahydro-1,6-naphthyridine]
70% | 1070 nM | Cc1c(C#N)nnc(N2CCc3ncc(-c4cnn(CCN(C)C)c4)cc3C2)c1C [Example 324, 6-(3-(1-(2-(dimethylamino)ethyl)-1H-pyrazol-4-yl)-7,8-dihydro-1,6-naphthyridin-6(5H)-yl)-4,5-dimethylpyridazine-3-carbonitrile]
98% | 1450 nM | Cc1cc(C#N)cnc1N1CCc2ncc(Nc3cccc(C(F)(F)F)c3F)cc2C1 [compound 113, 6-[3-[2-fluoro-3-(trifluoromethyl)anilino]-7,8-dihydro-5H-1,6-naphthyridin-6-yl]-5-methyl-pyridine-3-carbonitrile]
101% | 44 nM | Cc1c(C(=O)NCc2cncs2)nnc(N2CCc3ncc(C(F)(F)F)cc3C2)c1C [Example 465, 4,5-dimethyl-N-(thiazol-5-ylmethyl)-6-(3-(trifluoromethyl)-7,8-dihydro-1,6-naphthyridin-6(5H)-yl)pyridazine-3-carboxamide]
102% | 43 nM | COc1cnccc1CNC(=O)c1cc(C)c(N2CCc3ncc(C(F)(F)F)cc3C2)nn1 [Example 495, N-((3-methoxypyridin-4-yl)methyl)-5-methyl-6-(3-(trifluoromethyl)-7,8-dihydro-1,6-naphthyridin-6(5H)-yl)pyridazine-3-carboxamide]
83% | 1870 nM | Cc1c(Cl)nc(C(F)(F)F)nc1N1CCc2ncc(C3CC3)cc2C1 [compound 242, 6-(6-chloro-5-methyl-2-(trifluoromethyl)pyrimidin-4-yl)-3-cyclopropyl-5,6,7,8-tetrahydro-1,6-naphthyridine]
97% | 286 nM | Cc1cnc2c(c1)CN(c1nnc(C(=O)NCc3ccncc3)c(C)c1C)CC2 [Example 486, 4,5-dimethyl-6-(3-methyl-7,8-dihydro-1,6-naphthyridin-6(5H)-yl)-N-(pyridin-4-ylmethyl)pyridazine-3-carboxamide]
56% | 1420 nM | COc1ccc(Br)cc1CNC(=O)c1cnc(N2CCc3ncccc3C2)c(C)c1 [compound 141, N-[(5-bromo-2-methoxy-phenyl)methyl]-6-(7,8-dihydro-5H-1,6-naphthyridin-6-yl)-5-methyl-pyridine-3-carboxamide]
61% | 4720 nM | Cc1cc(C(=O)NCc2cccnc2)cnc1N1CCc2ncccc2C1 [compound 60, 6-(7,8-dihydro-5H-1,6-naphthyridin-6-yl)-5-methyl-N-(3-pyridylmethyl)pyridine-3-carboxamide]
62% | 306 nM | Cc1cc(C#N)cnc1N1CCc2ncc(N3CCCn4nc(C(F)(F)F)cc43)cc2C1 [Example 412, 5-methyl-6-(3-(2-(trifluoromethyl)-6,7-dihydropyrazolo[1,5-a]pyrimidin-4(5H)-yl)-7,8-dihydro-1,6-naphthyridin-6(5H)-yl)nicotinonitrile]
84% | 340 nM | Cc1cc(C(=O)N2CC3(C2)CC(F)(F)C3)nnc1N1CCc2ncc(-n3cccn3)cc2C1 [Example 570, (6-(3-(1H-pyrazol-1-yl)-7,8-dihydro-1,6-naphthyridin-6(5H)-yl)-5-methylpyridazin-3-yl)(6,6-difluoro-2-azaspiro[3.3]heptan-2-yl)methanone]
63% | 9080 nM | Cc1cc(C(=O)NCCc2ccncc2)cnc1N1CCc2ncccc2C1 [compound 126, 6-(7,8-dihydro-5H-1,6-naphthyridin-6-yl)-5-methyl-N-[2-(4-pyridyl)ethyl]pyridine-3-carboxamide]
102% | 257 nM | Cc1cc(C#N)nnc1N1CCc2ncc(N3CCCn4nc(C(F)(F)F)cc43)cc2C1 [Example 413, 5-methyl-6-(3-(2-(trifluoromethyl)-6,7-dihydropyrazolo[1,5-a]pyrimidin-4(5H)-yl)-7,8-dihydro-1,6-naphthyridin-6(5H)-yl)pyridazine-3-carbonitrile]
41% | 386 nM | Cc1c(C#N)nnc(N2CCc3ncc(-c4ccc(N5CCN(C6CC6)CC5)nc4)cc3C2)c1C [Example 335, 6-(3-(6-(4-cyclopropylpiperazin-1-yl)pyridin-3-yl)-7,8-dihydro-1,6-naphthyridin-6(5H)-yl)-4,5-dimethylpyridazine-3-carbonitrile]
97% | 3 nM | Cc1c(C#N)nnc(N2CCc3ncc(Nc4ccncc4F)cc3C2)c1C [Example 613, 6-(3-((3-fluoropyridin-4-yl)amino)-7,8-dihydro-1,6-naphthyridin-6(5H)-yl)-4,5-dimethylpyridazine-3-carbonitrile]
75% | 64 nM | Cc1cc(C(=O)N2CC(C)(F)C2)nnc1N1CCc2ncc(Nc3ccnn3C)cc2C1 [Example 560, (3-fluoro-3-methylazetidin-1-yl)(5-methyl-6-(3-((1-methyl-1H-pyrazol-5-yl)amino)-7,8-dihydro-1,6-naphthyridin-6(5H)-yl)pyridazin-3-yl)methanone]
86% | 647 nM | Cc1nc(Cl)c(C)c(N2CCc3ncc(Oc4cccc(F)c4)cc3C2)n1 [compound 203, 6-(6-chloro-2,5-dimethyl-pyrimidin-4-yl)-3-(3-fluorophenoxy)-7,8-dihydro-5H-1,6-naphthyridine]
83% | 759 nM | Cc1nc(Cl)c(C)c(N2CCc3nc(C(F)(F)F)ccc3C2)n1 [compound 218, 6-(6-chloro-2,5-dimethylpyrimidin-4-yl)-2-(trifluoromethyl)-5,6,7,8-tetrahydro-1,6-naphthyridine]
68% | 2710 nM | Cc1cc(C(=O)NCc2ccnn2C)cnc1N1CCc2ncccc2C1 [compound 63, 6-(7,8-dihydro-5H-1,6-naphthyridin-6-yl)-5-methyl-N-[(2-methylpyrazol-3-yl)methyl]pyridine-3-carboxamide]
64% | 191 nM | Cc1c(C#N)nnc(N2CCc3ncc(-c4ccc(N5CCN(C)CC5)nc4)cc3C2)c1C [Example 328, 4,5-dimethyl-6-(3-(6-(4-methylpiperazin-1-yl)pyridin-3-yl)-7,8-dihydro-1,6-naphthyridin-6(5H)-yl)pyridazine-3-carbonitrile]
